The record followed here is PubChem BioAssay AID686975 (The Scripps Research Institute Molecular Screening Center, 2013).

In test [1] the target is Heat shock protein HSP 90-alpha (Homo sapiens) (UniProt P07900). Briefly: Hsp70 and Hsp90 expression induction, late-stage follow-up, cell-based, Western blot, chemiluminescence (AID 686975). Particulars: cells, hits give high values. (In general: In western blotting, separated proteins are transferred to a membrane and probed.)
Another test has as its system HSP70. The test is described as above. The settings on record: cells, hits give high values.

SMILES strings stand for the structures. Calls of active or inactive are those of the source. How the calls were made is not given here. Where only a bound is given, the exact number is not on record here.

For `O=C(NCCc1ccc(F)cc1)c1coc(=O)c(Br)c1`, the up-regulation was less than 10% in test [1] (HSP90, high dose (five times the IC50) 10.5 µM, low dose (half the IC50) 1.1 µM) and less than 10% in the test on HSP70 (high dose (five times the IC50) 10.5 µM, low dose (half the IC50) 1.1 µM).

Turning to `CCCCOc1cccc(NC(=O)c2coc(=O)c(Br)c2)c1`, the up-regulation in test [1] (HSP90, high dose (five times the IC50) 114 µM, low dose (half the IC50) 11.4 µM) was < 50% (inactive); with HSP70 (high dose (five times the IC50) 114 µM, low dose (half the IC50) 11.4 µM) it was less than 10%.

`COC(=O)c1ccc2nc(NC(=O)C3CC3)sc2c1`: the up-regulation was less than 10% in test [1] (HSP90, high dose (five times the IC50) 246 µM, low dose (half the IC50) 24.6 µM) and less than 10% in the test on HSP70 (high dose (five times the IC50) 246 µM, low dose (half the IC50) 24.6 µM).

Turning to `COc1ccc(NC(=O)c2coc(=O)c(Br)c2)cc1`, the up-regulation was less than 10% in test [1] (HSP90, high dose (five times the IC50) 12 µM, low dose (half the IC50) 1.2 µM) and less than 10% with HSP70 (high dose (five times the IC50) 12 µM, low dose (half the IC50) 1.2 µM).

As to `O=C(NCc1ccco1)c1coc(=O)c(Br)c1`, the up-regulation in test [1] (HSP90, high dose (five times the IC50) 24 µM, low dose (half the IC50) 2.4 µM) was less than 10%; in the test on HSP70 (high dose (five times the IC50) 24 µM, low dose (half the IC50) 2.4 µM), less than 10%.

As to `CCCCCCCCOc1ccc(NC(=O)c2coc(=O)c(Br)c2)cc1`, the up-regulation in test [1] (HSP90, high dose (five times the IC50) 64.5 µM, low dose (half the IC50) 6.5 µM) was < 50% (inactive); in the test on HSP70 (high dose (five times the IC50) 64.5 µM, low dose (half the IC50) 6.5 µM), less than 10%.

Consider `O=C(Nc1ccccc1I)c1coc(=O)c(Br)c1`, for which the up-regulation was less than 10% in test [1] (HSP90, high dose (five times the IC50) 147 µM, low dose (half the IC50) 14.7 µM) and less than 10% in the test with HSP70 (high dose (five times the IC50) 147 µM, low dose (half the IC50) 14.7 µM).

On to `Cc1cccc(NC(=O)c2coc(=O)c(Br)c2)n1`, for which the up-regulation in test [1] (HSP90, high dose (five times the IC50) 136.5 µM, low dose (half the IC50) 13.7 µM) was < 50% (inactive); in the test on HSP70 (high dose (five times the IC50) 136.5 µM, low dose (half the IC50) 13.7 µM) it was less than 10%.

As to `CC(C)CNC(=O)c1coc(=O)c(Br)c1`, the up-regulation is less than 10% in test [1] (HSP90, high dose (five times the IC50) 37.5 µM, low dose (half the IC50) 3.8 µM) and less than 10% with HSP70 (high dose (five times the IC50) 37.5 µM, low dose (half the IC50) 3.8 µM).

With `CC(NC(=O)c1coc(=O)c(Br)c1)C1C2CCC3CC(C2)CC31` (configuration not stated), the up-regulation in test [1] (HSP90, high dose (five times the IC50) 9 µM, low dose (half the IC50) 0.9 µM) is less than 10%; in the test with HSP70 (high dose (five times the IC50) 9 µM, low dose (half the IC50) 0.9 µM), less than 10%.

As for `CCOc1ccc(-c2nc(CN3CCCCC3CCn3cccn3)c(C)o2)cc1` (configuration not stated), the up-regulation is less than 10% in test [1] (HSP90, high dose (five times the IC50) 111 µM, low dose (half the IC50) 11.1 µM) and less than 10% in the test on HSP70 (high dose (five times the IC50) 111 µM, low dose (half the IC50) 11.1 µM).

Take `O=C(NCc1cccnc1)c1coc(=O)c(Br)c1`: the up-regulation in test [1] (HSP90, high dose (five times the IC50) 17.5 µM, low dose (half the IC50) 1.8 µM) is less than 10%; with HSP70 (high dose (five times the IC50) 17.5 µM, low dose (half the IC50) 1.8 µM) it was less than 10%.

Regarding `COc1ccc(NC(=O)c2ccc(NC(=O)c3coc(=O)c(Br)c3)cc2)cc1`, the up-regulation was less than 10% in test [1] (HSP90, high dose (five times the IC50) 60.5 µM, low dose (half the IC50) 6.1 µM) and less than 10% with HSP70 (high dose (five times the IC50) 60.5 µM, low dose (half the IC50) 6.1 µM).

`CC(=O)c1ccc(NC(=O)c2coc(=O)c(Br)c2)cc1`: the up-regulation was less than 10% in test [1] (HSP90, high dose (five times the IC50) 53.5 µM, low dose (half the IC50) 5.4 µM) and less than 10% with HSP70 (high dose (five times the IC50) 53.5 µM, low dose (half the IC50) 5.4 µM).

Regarding `O=C(Nc1ccc(F)cc1)c1coc(=O)c(Br)c1`, the up-regulation in test [1] (HSP90, high dose (five times the IC50) 17 µM, low dose (half the IC50) 1.7 µM) is less than 10%; in the test with HSP70 (high dose (five times the IC50) 17 µM, low dose (half the IC50) 1.7 µM), less than 10%.

Turning to `Cc1cc(NC(=O)c2coc(=O)c(Br)c2)ccc1C(C)C`, the up-regulation in test [1] (HSP90, high dose (five times the IC50) 44.5 µM, low dose (half the IC50) 4.5 µM) is less than 10%; in the test with HSP70 (high dose (five times the IC50) 44.5 µM, low dose (half the IC50) 4.5 µM), less than 10%.
